These compounds were tested against T1, wild-type human cardiac sodium channel, hNav1.5 (late sodium current) (Homo sapiens, UniProt Q14524) (assay: Late INa screening assay (PatchXpress whole cell patch clamp)). Settings: 1 μM test compound; HEK293 hNav1.5; late INa generated with 10 μM Tefluthrin (some experiments 50 nM ATX II); read-out: Late INa % blk (1 μM test cmpd).
T1 construct: host or cells: HEK293
Assay type: cell-based
Method: The late sodium current (Late INa) and peak sodium current (Peak INa) assays are performed on an automated electrophysiology platform, PatchXpress 7000A (MDS Analytical Technologies, Sunnyvale, Calif.), which uses the whole cell patch clamp technique to measure currents through the cell membrane of up to 16 cells at a time. The assay uses an HEK293 (human embryonic kidney) cell line heterologously expressing the wild-type human cardiac sodium channel, hNav1.5, purchased from Millipore (Billerica, Mass.). No beta subunits were coexpressed with the Na channel alpha subunit. Cells are maintained with standard tissue culture procedures and stable channel expression is maintained with 400 μg/ml Geneticin in the culture medium. […] Experiments are carried out at 24-27° C.
For both the Late INa and Peak INa assays, series resistance compensation is set to 50% and whole-cell compensation is performed automatically. […] Currents through open sodium channels are automatically recorded and stored in the DataXpress2 database (MDS Analytical Technologies, Sunnyvale, Calif.). Analysis is performed using DataXpress2 analysis software and data are compiled in Excel.
Compound stocks are routinely made in glass vials to 10 mM in dimethyl sulfoxide (DMSO). In some cases, when compounds are not soluble in DMSO, they are made in 100% ethanol. Stocks are sonicated as necessary. The extracellular solution for screening Late INa is composed of: 140 mM NaCl, 4 mM KCl, 1.8 mM CaCl2, 0.75 mM MgCl2, and 5 mM HEPES with pH adjusted to 7.4 using NaOH. The extracellular solution for screening Peak INa is composed of: 20 mM NaCl, 120 mM N-methyl-D glucamine, 4 mM KCl, 1.8 mM CaCl2, 0.75 mM MgCl2, and 5 mM HEPES with pH adjusted to 7.4 using HCl. The intracellular solution used to perfuse the inside of the cells for both the Late INa and Peak INa assays contains: 120 mM CsF, 20 mM CsCl, 5 mM EGTA, 5 mM HEPES and pH adjusted to 7.4 with CsOH. […] The 0Na extracellular solution used at the end of each experiment for the Late INa and Peak INa assays to measure baseline current contains: 140 mM N-methyl-D-glucamine; 4 mM KCl; 1.8 mM CaCl2; 0.75 mM MgCl2; 5 mM HEPES and pH was adjusted to 7.4 with HCl.
For the Late INa assay, sodium channels are activated every 10 seconds (0.1 Hz) by depolarizing the cell membrane to −20 mV for 250 milliseconds (ms) from a holding potential of −120 mV. In response to a −20 mV voltage step, typical Nav1.5 sodium currents activate rapidly to a peak negative current and then inactivate nearly completely within […].
All compounds are tested to determine their activity in blocking the late sodium current. Late INa current is generated by adding 10 μM Tefluthrin (pyrethroid) to the extracellular solution while recording Na currents For some experiments, 50 nM ATX II (sea anemone toxin), another late Na activator, was used to generate the late component. […] After establishing the whole cell recording configuration, late INa activators are added to each well 4 times over a 16-17 minute period so that the late component of the Na current reaches a stable value. […] Measurements are made at the end of exposure to the third compound addition and values are normalized to the current level when all Na^+ is removed from the extracellular solution after two additions of ONa-ECF. Results are reported as percent block of late INa

T1 sequence (Q14524 whole entry): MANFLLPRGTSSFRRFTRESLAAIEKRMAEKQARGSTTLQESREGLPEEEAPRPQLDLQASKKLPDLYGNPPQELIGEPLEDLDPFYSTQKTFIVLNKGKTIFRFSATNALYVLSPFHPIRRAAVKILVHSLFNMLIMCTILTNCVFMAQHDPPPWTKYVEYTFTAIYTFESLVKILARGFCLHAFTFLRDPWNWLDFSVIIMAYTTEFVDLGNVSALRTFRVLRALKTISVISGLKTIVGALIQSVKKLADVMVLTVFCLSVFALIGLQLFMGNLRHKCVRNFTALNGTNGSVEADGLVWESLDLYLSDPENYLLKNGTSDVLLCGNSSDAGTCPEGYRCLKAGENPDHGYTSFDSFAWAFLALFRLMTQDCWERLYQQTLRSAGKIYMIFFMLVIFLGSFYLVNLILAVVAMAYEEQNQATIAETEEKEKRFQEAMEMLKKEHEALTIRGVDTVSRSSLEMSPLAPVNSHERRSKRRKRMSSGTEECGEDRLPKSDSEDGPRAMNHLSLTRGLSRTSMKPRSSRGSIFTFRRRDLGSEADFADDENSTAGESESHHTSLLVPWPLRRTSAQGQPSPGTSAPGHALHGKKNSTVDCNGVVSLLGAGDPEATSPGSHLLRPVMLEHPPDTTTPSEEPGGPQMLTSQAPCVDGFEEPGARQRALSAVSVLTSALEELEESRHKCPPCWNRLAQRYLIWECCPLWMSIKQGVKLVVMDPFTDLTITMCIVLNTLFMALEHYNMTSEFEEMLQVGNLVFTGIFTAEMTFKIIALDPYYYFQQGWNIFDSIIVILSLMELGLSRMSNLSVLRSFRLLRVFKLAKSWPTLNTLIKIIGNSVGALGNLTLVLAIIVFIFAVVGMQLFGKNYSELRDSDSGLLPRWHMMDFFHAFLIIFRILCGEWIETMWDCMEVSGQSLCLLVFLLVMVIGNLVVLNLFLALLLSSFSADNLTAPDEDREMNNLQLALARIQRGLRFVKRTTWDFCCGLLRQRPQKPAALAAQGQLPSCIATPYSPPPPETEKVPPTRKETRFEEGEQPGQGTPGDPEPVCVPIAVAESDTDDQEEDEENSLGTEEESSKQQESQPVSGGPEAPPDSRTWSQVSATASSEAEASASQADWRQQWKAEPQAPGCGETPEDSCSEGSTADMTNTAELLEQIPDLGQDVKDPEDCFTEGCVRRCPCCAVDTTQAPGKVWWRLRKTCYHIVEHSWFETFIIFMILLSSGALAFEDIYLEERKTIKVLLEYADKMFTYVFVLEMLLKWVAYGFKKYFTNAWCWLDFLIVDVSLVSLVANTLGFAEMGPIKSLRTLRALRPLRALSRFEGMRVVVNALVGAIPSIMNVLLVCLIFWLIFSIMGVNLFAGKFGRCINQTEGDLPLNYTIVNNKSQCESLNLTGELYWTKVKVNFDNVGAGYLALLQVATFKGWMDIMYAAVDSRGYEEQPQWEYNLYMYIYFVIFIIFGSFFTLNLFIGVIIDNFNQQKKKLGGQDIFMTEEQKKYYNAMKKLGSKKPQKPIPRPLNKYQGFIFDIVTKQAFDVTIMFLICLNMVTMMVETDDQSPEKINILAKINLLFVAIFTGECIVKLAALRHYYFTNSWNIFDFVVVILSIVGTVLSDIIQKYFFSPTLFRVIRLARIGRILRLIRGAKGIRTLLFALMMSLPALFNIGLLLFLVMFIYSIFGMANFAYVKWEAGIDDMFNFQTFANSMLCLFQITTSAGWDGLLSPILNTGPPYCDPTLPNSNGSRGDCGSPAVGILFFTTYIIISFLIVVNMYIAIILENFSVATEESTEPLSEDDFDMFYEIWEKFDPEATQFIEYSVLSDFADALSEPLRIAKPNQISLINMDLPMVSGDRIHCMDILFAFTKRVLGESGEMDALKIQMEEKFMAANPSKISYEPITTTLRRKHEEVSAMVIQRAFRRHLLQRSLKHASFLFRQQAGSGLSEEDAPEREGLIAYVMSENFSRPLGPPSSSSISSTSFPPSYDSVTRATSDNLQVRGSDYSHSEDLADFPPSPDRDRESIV

Row | SMILES | inhibition at 1 µM [%]
1 | CS(=O)(=O)Nc1ccc(-c2cc(C(F)(F)F)cc(C(F)(F)F)c2)c(Cl)c1 [PT-065, N-[2-chloro-3′,5′-bis(trifluoromethyl)biphenyl-4-yl]methanesulfonamide] | 27.8
2 | CS(=O)(=O)Nc1ccc(-c2cccc(OC(F)(F)F)c2)c(F)c1 [PT-067, N-[2-fluoro-3′-(trifluoromethoxy)biphenyl-4-yl]methanesulfonamide] | 13.8
3 | CS(=O)(=O)N(CCN1CCCCC1)c1ccc(-c2ccc(Cl)c(F)c2)c(Cl)c1 [PT-062, N-(2,4′-dichloro-3′-fluorobiphenyl-4-yl)-N-[2-(piperidin-1-yl)ethyl]methanesulfonamide] | 25.7

Same assay, conditions: 10 μM test compound; HEK293 hNav1.5; late INa generated with 10 μM Tefluthrin (some experiments 50 nM ATX II); read-out: Late INa % blk (10 μM test cmpd)

Row | SMILES | inhibition at 10 µM [%]
4 | CS(=O)(=O)Nc1ccc(-c2ccc(Oc3ccccc3)cc2)cc1 [PT-033, N-(4′-phenoxybiphenyl-4-yl)methanesulfonamide] | 15.1
5 | CCOC(=O)CN(c1ccc(-c2ccc(Cl)c(F)c2)c(OC)c1)S(C)(=O)=O [PT-019, ethyl N-(4′-chloro-3′-fluoro-2-methoxybiphenyl-4-yl)-N-(methylsulfonyl)glycinate] | 55
6 | CS(=O)(=O)Nc1ccc(-c2ccc(OC(F)(F)F)cc2)c(C(F)(F)F)c1 [PT-014, N-[4′-(trifluoromethoxy)-2-(trifluoromethyl)biphenyl-4-yl]methanesulfonamide] | 50.5
7 | COc1cc(N(Cc2ccc(C(=O)O)cc2)S(C)(=O)=O)ccc1-c1ccc(Oc2ccccc2)cc1 [PT-134, 4-((N-(2-methoxy-4′-phenoxybiphenyl-4-yl)methylsulfonamido)methyl)benzoic acid] | 3.9
8 | COc1cc(NS(C)(=O)=O)ccc1-c1cccc(OC(F)(F)F)c1 [PT-010, N-[2-methoxy-3′-(trifluoromethoxy)biphenyl-4-yl]methanesulfonamide] | 48.2
9 | CS(=O)(=O)N(Cc1ccc(C(=O)O)cc1)c1cccc(-c2ccc(C(F)(F)F)c(F)c2)c1 [PT-154, 4-((N-(3′-fluoro-4′-(trifluoromethyl)biphenyl-3-yl)methylsulfonamido)methyl)benzoic acid] | 7
10 | CS(=O)(=O)Nc1ccc(-c2ccc(F)c(Cl)c2)cc1Cl [PT-030, N-(3,3′-dichloro-4′-fluorobiphenyl-4-yl)methanesulfonamide] | 41.4
11 | CS(=O)(=O)N(CC(=O)O)c1ccc(-c2ccc(F)c(Cl)c2)c(Cl)c1 [PT-104, N-(2,3′-dichloro-4′-fluorobiphenyl-4-yl)-N-(methylsulfonyl)glycine] | 14.2
12 | CS(=O)(=O)Nc1ccc(-c2ccc(C(F)(F)F)cc2)cc1C(=O)O [PT-122, 4-[(methylsulfonyl)amino]-4′-(trifluoromethyl)biphenyl-3-carboxylic acid] | 25.4
13 | Cc1cc(N([C@@H](C)C(=O)O)S(C)(=O)=O)ccc1-c1ccc(Oc2ccccc2)cc1 [PT-105, N-(2-methyl-4′-phenoxybiphenyl-4-yl)-N-(methylsulfonyl)alanine] | 5.8
14 | Cc1cc(N(Cc2ccc(C(=O)O)cc2)S(C)(=O)=O)ccc1-c1ccc(Oc2ccc(F)cc2)cc1 [PT-136, 4-((N-(4′-(4-fluorophenoxy)-2-methylbiphenyl-4-yl)methylsulfonamido)methyl)benzoic acid] | 8.8
15 | CCOC(=O)CN(c1ccc(-c2ccc(Cl)c(F)c2)c(Cl)c1)S(C)(=O)=O [PT-025, ethyl N-(2,4′-dichloro-3′-fluorobiphenyl-4-yl)-N-(methylsulfonyl)glycinate] | 60
16 | CC(C)(C)OC(=O)CN(c1ccc(-c2ccc(F)c(Cl)c2)c(Cl)c1)S(C)(=O)=O [PT-102, tert-butyl N-(2,3′-dichloro-4′-fluorobiphenyl-4-yl)-N-(methylsulfonyl)glycinate] | 53.6
17 | CS(=O)(=O)Nc1ccc(-c2ccc(C(F)(F)F)cc2)c(NC(=O)c2cccnc2)c1 [PT-165, N-(4-(methylsulfonamido)-4′-(trifluoromethyl)biphenyl-2-yl)nicotinamide] | -0.3
18 | CS(=O)(=O)Nc1ccc(-c2cc(C(F)(F)F)ccc2F)c(Cl)c1 [PT-070, N-[2-chloro-2′-fluoro-5′-(trifluoromethyl)biphenyl-4-yl]methanesulfonamide] | 69.7
19 | COc1cc(NS(C)(=O)=O)ccc1-c1ccc(F)cc1 [PT-031, N-(4′-fluoro-2-methoxybiphenyl-4-yl)methanesulfonamide] | 17.1

Row | SMILES | inhibition at 10 µM [%]
20 | CS(=O)(=O)Nc1ccc(-c2ccc(C(F)(F)F)cc2)cc1OC(F)(F)F [PT-075, N-[3-(trifluoromethoxy)-4′-(trifluoromethyl)biphenyl-4-yl]methanesulfonamide] | 24.4
21 | CS(=O)(=O)Nc1ccc(-c2cc(C(F)(F)F)cc(C(F)(F)F)c2)c(Cl)c1 [PT-065, N-[2-chloro-3′,5′-bis(trifluoromethyl)biphenyl-4-yl]methanesulfonamide] | 85.6
22 | Cc1cc(-c2ccc(Oc3ccccc3)cc2)c(Cl)cc1N(CC(=O)O)S(C)(=O)=O [PT-106, N-(2-chloro-5-methyl-4′-phenoxybiphenyl-4-yl)-N-(methylsulfonyl)glycine] | 42
23 | CS(=O)(=O)N(Cc1ccc(C(=O)O)cc1)c1ccc(-c2ccc(Oc3ccccc3)cc2)cc1 [PT-156, 4-((N-(4′-phenoxybiphenyl-4-yl)methylsulfonamido)methyl)benzoic acid] | 7.9
24 | COC(=O)c1cc(-c2ccc(C(F)(F)F)cc2)ccc1NS(C)(=O)=O [PT-121, methyl 4-[(methylsulfonyl)amino]-4′-(trifluoromethyl)biphenyl-3-carboxylate] | 40.5
25 | CS(=O)(=O)Nc1ccc(-c2cccc(OC(F)(F)F)c2)cc1OC(F)(F)F [PT-100, N-[3,3′-bis(trifluoromethoxy)biphenyl-4-yl]methanesulfonamide] | -0.7
26 | COc1cc(NS(C)(=O)=O)ccc1-c1ccccc1OC(F)(F)F [PT-011, N-[2-methoxy-2′-(trifluoromethoxy)biphenyl-4-yl]methanesulfonamide] | 47.6
27 | CN1CCN(CCN(c2ccc(-c3ccc(Cl)c(F)c3)c(Cl)c2)S(C)(=O)=O)CC1 [PT-063, N-(2,4′-dichloro-3′-fluorobiphenyl-4-yl)-N-[2-(4-methylpiperazin-1-yl)ethyl]methanesulfonamide] | 48.8
28 | CS(=O)(=O)Nc1ccc(-c2cccc(C(F)(F)F)c2)c(F)c1 [PT-079, N-[2-fluoro-3′-(trifluoromethyl)biphenyl-4-yl]methanesulfonamide] | 53.2
29 | CS(=O)(=O)Nc1ccc(-c2cccc(OC(F)(F)F)c2)c(F)c1 [PT-067, N-[2-fluoro-3′-(trifluoromethoxy)biphenyl-4-yl]methanesulfonamide] | 70.7
30 | CS(=O)(=O)Nc1cccc(-c2ccc(C(F)(F)F)c(F)c2)c1 [PT-132, N-(3′-fluoro-4′-(trifluoromethyl)biphenyl-3-yl)methanesulfonamide] | 65.9
31 | CS(=O)(=O)N(CC(=O)O)c1ccc(-c2ccc(Cl)c(F)c2)c(Cl)c1 [PT-092, N-(2,4′-dichloro-3′-fluorobiphenyl-4-yl)-N-(methylsulfonyl)glycine] | -2.4
32 | CS(=O)(=O)Nc1ccc(-c2ccc(OC(F)(F)F)cc2)c(F)c1 [PT-078, N-[2-fluoro-4′-(trifluoromethoxy)biphenyl-4-yl]methanesulfonamide] | 49.1
33 | CS(=O)(=O)N(CCN1CCCCC1)c1ccc(-c2ccc(Cl)c(F)c2)c(Cl)c1 [PT-062, N-(2,4′-dichloro-3′-fluorobiphenyl-4-yl)-N-[2-(piperidin-1-yl)ethyl]methanesulfonamide] | 74.8
34 | N#Cc1cc(NS(=O)(=O)C2CC2)ccc1-c1ccc(Oc2ccccc2)cc1 [PT-124, N-(2-cyano-4′-phenoxybiphenyl-4-yl)cyclopropanesulfonamide] | 32.2
35 | CS(=O)(=O)Nc1ccc(-c2ccc(Cl)c(F)c2)c(F)c1 [PT-059, N-(4′-chloro-2,3′-difluorobiphenyl-4-yl)methanesulfonamide] | 41.3
